Source: patent publication US20250144067A1, “PERSONALIZED STARVATION THERAPY FOR CANCER” (Faeth Therapeutics, Inc., priority 2021, published 2025)
Where a name gives a salt, the structure may show the parent alone. Read-outs that look alike come from different tables or passages of the source.

Assays:
[1] = system: NCI-H292 lung cancer cells; experiment: FDA drug screening, complete media vs cholesterol-free media without statin (TABLE 1); format: cell-based, human
[2] = system: NCI-H292 lung cancer cells; experiment: FDA drug screening, complete media vs cholesterol-free media with simvastatin (TABLE 2); format: cell-based, human
[3] = Complete minus Cholesterol-free, greater than 0 enhanced anti-cancer activity, about 0 neutral, below 0 antagonists
[4] = NCI-H292 cells in cholesterol-free media without statin
[5] = NCI-H292 cells in complete media
[6] = NCI-H292 cells, FDA library drug in cholesterol-free media with simvastatin 0.04 μM
[7] = NCI-H292 cells, FDA library drug in complete media
[8] = complete media vs cholesterol-free media + simvastatin (0.04 μM), >0 enhanced anti-cancer activity, about 0 neutral, <0 antagonist
[9] = NCI-H292 cells, cholesterol-free media without statin
[10] = complete vs cholesterol-free media, greater than 0 enhanced anti-cancer activity, about 0 neutral, below 0 antagonists
[11] = NCI-H292 cells, drug in cholesterol-free media with simvastatin 0.04 μM
[12] = NCI-H292 cells, drug in complete media
[13] = NCI-H292 cells, cholesterol-free media without statin, FDA drug library screen
[14] = NCI-H292 cells, complete media, FDA drug library screen
[15] = NCI-H292 cells, FDA drug library screen, cholesterol-free media with simvastatin 0.04 μM
[16] = NCI-H292 cells, FDA drug library screen, complete media
[17] = complete media minus cholesterol-free media + simvastatin, >0 enhanced anti-cancer activity, about 0 neutral, <0 antagonist
[18] = Complete minus Cholesterol-free, >0 enhanced anti-cancer activity, about 0 neutral, <0 antagonist
[19] = NCI-H292 cells, cholesterol-free media with simvastatin 0.04 μM, FDA drug library screen (TABLE 2)
[20] = NCI-H292 cells, complete media, FDA drug library screen (TABLE 2)
[21] = complete media minus cholesterol-free media + simvastatin (0.04 μM), >0 enhanced anti-cancer activity, about 0 neutral, <0 antagonist
[22] = Complete minus Cholesterol-free, greater than 0 enhanced anti-cancer activity, about 0 neutral, below 0 antagonist
[23] = NCI-H292 cells, FDA drug library screen, cholesterol-free media without statin
[24] = Complete minus Cholesterol-free, […]
[25] = complete media vs cholesterol-free media + simvastatin (0.04 μM), […]
[26] = NCI-H292 cells, cholesterol-free media with simvastatin 0.04 μM, cell growth value in FDA drug screen
[27] = NCI-H292 cells, complete media, cell growth value in FDA drug screen

COCCCOc1ccnc(C[S+]([O-])c2nc3ccccc3[n-]2)c1C.[Na+] (centres unmarked) [Rabeprazole (sodium)]
Difference [1, 3]: −0.70
Cholesterol-free [1, 4]: 1.634
Complete [1, 5]: 0.9326
Cholesterol-free media + simvastatin (0.04 μM) [2, 6]: 1.461
Complete Media [2, 7]: 0.9065
Difference [2, 8]: −0.55

CC(=O)SCC(Cc1ccccc1)C(=O)NCC(=O)OCc1ccccc1 (centres unmarked) [Racecadotril]
Cholesterol-free [1, 9]: 1.294
Complete ([1]; NCI-H292 cells, complete media): 0.8911
Difference [1, 10]: −0.40
Cholesterol-free media + simvastatin (0.04 μM) [2, 11]: 1.092
Complete Media [2, 12]: 0.8523
Difference [2, 8]: −0.24

O=C(c1ccc(OCCN2CCCCC2)cc1)c1c(-c2ccc(O)cc2)sc2cc(O)ccc12 [Raloxifene (hydrochloride)]
Cholesterol-free [1, 13]: 0.9028
Complete [1, 14]: 1.184
Difference ([1]; complete vs cholesterol-free media, >0 enhanced anti-cancer activity, about 0 neutral, <0 antagonist): 0.28
Cholesterol-free media + simvastatin (0.04 μM) [2, 15]: 0.3884
Complete Media [2, 16]: 0.7486
Difference [2, 17]: 0.36

Cc1nnc(C(=O)NC(C)(C)c2nc(C(=O)NCc3ccc(F)cc3)c(O)c(=O)n2C)o1 [Raltegravir (potassium salt)]
Cholesterol-free [1]: 1.332
Complete [1]: 0.9188
Difference [1]: −0.41
Cholesterol-free media + simvastatin (0.04 μM) [2]: 0.8687
Complete Media [2]: 0.9051
Difference [2]: 0.04

Cc1nnc(C(=O)NC(C)(C)c2nc(C(=O)NCc3ccc(F)cc3)c(O)c(=O)n2C)o1 [Raltegravir]
Cholesterol-free [1]: 1.135
Complete [1]: 0.9505
Difference [1]: −0.18
Cholesterol-free media + simvastatin (0.04 μM) [2]: 1.209
Complete Media [2]: 1.119
Difference [2]: −0.09

Cc1nc2ccc(CN(C)c3ccc(C(=O)N[C@@H](CCC(=O)O)C(=O)O)s3)cc2c(=O)[nH]1 [Raltitrexed]
Difference [1, 18]: −0.24
Cholesterol-free [1, 9]: 0.3503
Complete ([1]; NCI-H292 cells, complete media): 0.1117
Cholesterol-free media + simvastatin (0.04 μM) [2, 19]: 0.1121
Complete Media [2, 20]: 0.0907
Difference [2, 21]: −0.02

O=C(O)CCn1c2c(c3ccccc31)C[C@H](NS(=O)(=O)c1ccc(F)cc1)CC2 [Ramatroban]
Difference [1, 18]: −0.25
Cholesterol-free [1, 9]: 0.905
Complete ([1]; NCI-H292 cells, complete media): 0.6524
Cholesterol-free media + simvastatin (0.04 μM) [2, 15]: 1.061
Complete Media [2, 16]: 0.9101
Difference [2, 8]: −0.15

CCC(=O)NCC[C@@H]1CCc2ccc3c(c21)CCO3 [Ramelteon]
Difference [1, 22]: −0.10
Cholesterol-free [1, 23]: 0.9442
Complete [1, 16]: 0.8409
Cholesterol-free media + simvastatin (0.04 μM) [2, 15]: 1.166
Complete Media [2, 16]: 1.318
Difference [2, 17]: 0.15

CCOC(=O)[C@H](CCc1ccccc1)N[C@@H](C)C(=O)N1[C@H](C(=O)O)C[C@@H]2CCC[C@@H]21 [Ramipril]
Difference [1, 18]: −0.24
Cholesterol-free [1, 9]: 1.132
Complete ([1]; NCI-H292 cells, complete media): 0.8936
Cholesterol-free media + simvastatin (0.04 μM) [2, 19]: 1.055
Complete Media [2, 20]: 0.9941
Difference [2, 21]: −0.06

Cn1cc(C(=O)[C@@H]2CCc3nc[nH]c3C2)c2ccccc21 [Ramosetron (Hydrochloride)]
Difference [1, 18]: 0.03
Cholesterol-free [1, 13]: 0.9223
Complete [1, 14]: 0.9545
Cholesterol-free media + simvastatin (0.04 μM) [2, 15]: 1.25
Complete Media [2, 16]: 1.513
Difference [2, 17]: 0.26

CNC(=C[N+](=O)[O-])NCCSCc1ccc(CN(C)C)o1 [Ranitidine (hydrochloride)]
Difference [1, 3]: −0.55
Cholesterol-free [1, 4]: 1.186
Complete [1, 5]: 0.6384
Cholesterol-free media + simvastatin (0.04 μM) [2, 6]: 1.27
Complete Media [2, 7]: 0.8219
Difference [2, 8]: −0.45

COc1ccccc1OCC(O)CN1CCN(CC(=O)Nc2c(C)cccc2C)CC1 (centres unmarked) [Ranolazine (dihydrochloride)]
Difference [1, 18]: −0.23
Cholesterol-free [1, 9]: 1.148
Complete ([1]; NCI-H292 cells, complete media): 0.9194
Cholesterol-free media + simvastatin (0.04 μM) [2, 19]: 0.9671
Complete Media [2, 20]: 0.9017
Difference [2, 21]: −0.07

COc1ccccc1OCC(O)CN1CCN(CC(=O)Nc2c(C)cccc2C)CC1 (centres unmarked) [Ranolazine]
Cholesterol-free [1, 9]: 1.774
Complete ([1]; NCI-H292 cells, complete media): 1.359
Difference [1, 10]: −0.41
Cholesterol-free media + simvastatin (0.04 μM) [2, 15]: 1.311
Complete Media [2, 16]: 1.162
Difference [2, 8]: −0.15

C=CC[N+]1([C@H]2C[C@H]3[C@@H]4CC[C@H]5C[C@H](OC(C)=O)[C@@H](N6CCCCC6)C[C@]5(C)[C@H]4CC[C@]3(C)[C@H]2OC(=O)CC)CCCCC1 [Rapacuronium bromide]
Difference [1, 24]: 0.04
Cholesterol-free [1, 13]: 0.8802
Complete [1, 14]: 0.9158
Cholesterol-free media + simvastatin (0.04 μM) [2, 6]: 1.051
Complete Media [2, 7]: 0.7626
Difference [2, 25]: −0.29

CO[C@H]1C[C@@H]2CC[C@@H](C)[C@@](O)(O2)C(=O)C(=O)N2CCCC[C@H]2C(=O)O[C@H]([C@H](C)C[C@@H]2CC[C@@H](O)[C@H](OC)C2)CC(=O)[C@H](C)/C=C(\C)[C@@H](O)[C@@H](OC)C(=O)[C@H](C)C[C@H](C)/C=C/C=C/C=C/1C [Rapamycin]
Difference [1, 22]: −0.13
Cholesterol-free [1, 23]: 0.3515
Complete [1, 16]: 0.2187
Cholesterol-free media + simvastatin (0.04 μM) [2, 6]: 1.159
Complete Media [2, 7]: 0.8704
Difference [2, 8]: −0.29

COC(=O)[C@H]1[C@H]2C[C@H]3c4[nH]c5ccccc5c4CCN3C[C@H]2CC[C@@H]1O [Rauwolscine (hydrochloride)]
Cholesterol-free [1, 9]: 1.377
Complete ([1]; NCI-H292 cells, complete media): 0.9629
Difference [1, 10]: −0.41
Cholesterol-free media + simvastatin (0.04 μM) [2, 26]: 0.7455
Complete Media [2, 27]: 0.837
Difference [2, 17]: 0.09

O=C(NC(Cc1cc(=O)[nH]c2ccccc12)C(=O)O)c1ccc(Cl)cc1 (centres unmarked) [Rebamipide]
Difference [1, 3]: −0.60
Cholesterol-free [1, 4]: 1.735
Complete [1, 5]: 1.132
Cholesterol-free media + simvastatin (0.04 μM) [2, 15]: 1.344
Complete Media [2, 16]: 1.19
Difference [2, 8]: −0.15

CCOc1ccccc1OC(c1ccccc1)C1CNCCO1.CS(=O)(=O)O (centres unmarked) [Reboxetine (mesylate)]
Cholesterol-free [1, 13]: 1.105
Complete [1, 14]: 1.321
Difference ([1]; complete vs cholesterol-free media, […]): 0.22
Cholesterol-free media + simvastatin (0.04 μM) [2, 15]: 0.8624
Complete Media [2, 16]: 0.7048
Difference [2, 25]: −0.16

CNC(=O)c1cnn(-c2nc(N)c3ncn([C@@H]4O[C@H](CO)[C@@H](O)[C@H]4O)c3n2)c1 [Regadenoson]
Difference [1, 24]: −0.21
Cholesterol-free [1, 9]: 1.426
Complete ([1]; NCI-H292 cells, complete media): 1.216
Cholesterol-free media + simvastatin (0.04 μM) [2, 6]: 1.362
Complete Media [2, 7]: 1.055
Difference [2, 25]: −0.31

CNC(=O)c1cc(Oc2ccc(NC(=O)Nc3ccc(Cl)c(C(F)(F)F)c3)c(F)c2)ccn1 [Regorafenib (Hydrochloride)]
Difference [1, 18]: 0.04
Cholesterol-free [1, 13]: 0.8297
Complete [1, 14]: 0.8736
Cholesterol-free media + simvastatin (0.04 μM) [2, 19]: 0.9433
Complete Media [2, 20]: 0.9026
Difference [2, 21]: −0.04

CNC(=O)c1cc(Oc2ccc(NC(=O)Nc3ccc(Cl)c(C(F)(F)F)c3)c(F)c2)ccn1 [Regorafenib (monohydrate)]
Cholesterol-free [1, 9]: 1.026
Complete ([1]; NCI-H292 cells, complete media): 0.6282
Difference [1, 10]: −0.40
Cholesterol-free media + simvastatin (0.04 μM) [2, 6]: 1.311
Complete Media [2, 7]: 0.728
Difference [2, 8]: −0.58

CNC(=O)c1cc(Oc2ccc(NC(=O)Nc3ccc(Cl)c(C(F)(F)F)c3)c(F)c2)ccn1 [Regorafenib]
Difference [1, 22]: −0.09
Cholesterol-free [1, 23]: 0.6924
Complete [1, 16]: 0.601
Cholesterol-free media + simvastatin (0.04 μM) [2, 11]: 1.071
Complete Media [2, 12]: 0.8585
Difference [2, 8]: −0.21

NC(=O)c1ccn(-c2cnc(NC[C@]3(c4ncccc4F)C[C@H](F)C3)nc2)c1 [Reldesemtiv]
Difference [1, 18]: −0.25
Cholesterol-free [1, 9]: 1.096
Complete ([1]; NCI-H292 cells, complete media): 0.8441
Cholesterol-free media + simvastatin (0.04 μM) [2, 11]: 1.122
Complete Media [2, 12]: 0.9357
Difference [2, 8]: −0.19

O=C(NC1CCNCC1)[C@@H]1CC[C@@H]2CN1C(=O)N2OS(=O)(=O)O [Relebactam]
Difference [1, 3]: −0.59
Cholesterol-free [1, 4]: 1.438
Complete [1, 5]: 0.845
Cholesterol-free media + simvastatin (0.04 μM) [2, 26]: 0.885
Complete Media [2, 27]: 0.9451
Difference [2, 17]: 0.06

CONC(=O)Nc1ccc(-c2sc3c(c2CN(C)C)c(=O)n(-c2ccc(OC)nn2)c(=O)n3Cc2c(F)cccc2F)cc1 [Relugolix]
Difference [1, 3]: −0.64
Complete [1, 5]: 0.978
Cholesterol-free media + simvastatin (0.04 μM) [2, 6]: 1.344
Complete Media [2, 7]: 1.077
Difference [2, 8]: −0.27

CCOc1cc(CC(=O)N[C@@H](CC(C)C)c2ccccc2N2CCCCC2)ccc1C(=O)O [Repaglinide]
Difference [1, 22]: −0.08
Cholesterol-free [1, 23]: 1.088
Complete [1, 16]: 1.008
Cholesterol-free media + simvastatin (0.04 μM) [2, 11]: 0.996
Complete Media [2, 12]: 0.8125
Difference [2, 8]: −0.18
